Reference: patent US20230049952A1, “METHODS AND COMPOUNDS FOR RESTORING MUTANT P53 FUNCTION” (PMV Pharmaceuticals, Inc., priority 2020, published 2023)
Where two headings read alike, the source gives them in different places.

Legend:
MATE2K [1] = target: T1, MATE2K (Homo sapiens, UniProt Q86VL8); experiment: in vitro; conditions: HEK293 cells transfected with MATE2K, probe metformin (50 µM)
MATE2K [2] = target: T1, MATE2K; experiment: uptake transporter inhibition assessment, transfected HEK293; conditions: inhibitor 1 μM
P-GP [3] = target: T2, P-GP (Homo sapiens, UniProt P08183); conditions: Caco-2, 120 min, 10 µM, pH 7.4
P-GP [4] = target: T2, P-GP; experiment: in vitro; conditions: Caco-2, pH 7.4
P-GP [5] = target: T2, P-GP; experiment: in vitro; conditions: dog, MDCK-MDR1, pH 7.4
P-GP [6] = target: T2, P-GP; experiment: in vitro
in vitro [7] = conditions: human, Caco-2
P-gp [8] = experiment: in vitro; conditions: human, Caco-2, pH 7.4
P-gp (MDR1) = experiment: in vitro; conditions: dog, MDCK-MDR1
P-gp [9] = experiment: in vitro; conditions: dog, MDCK-MDR1, pH 7.4
P-GP [10] = target: T2, P-GP; experiment: P-GP substrate assessment, Caco-2 monolayers
P-GP [11] = target: T2, P-GP; experiment: P-GP substrate assessment, MDR1-MDCK monolayers; conditions: for Recovery (%): B-to-A
CYP2D6 [12] = target: T3, CYP2D6 (Homo sapiens, UniProt P10635); conditions: both, microsomes, 30 min, 0.123 µM, pH 7.4
CYP2D6 [13] = target: T3, CYP2D6; experiment: in vitro; conditions: both, microsomes, pH 7.4, % of Control Enzyme Activity
[14] = cell batch quality control, BCRP-MDCK monolayers; type: in vitro ADME; conditions: dog; BCRP-MDCK cell batch QC; passage 23
Experimental: BCRP-MDCK cell monolayers were prepared at Absorption Systems. […] Each determination was performed in duplicate.

in vitro [15] = conditions: dog, MDCK-MDR1, pH 7.4
OAT3 [16] = target: T4, OAT3 (Homo sapiens, UniProt Q8TCC7); experiment: in vitro; conditions: HEK293 cells transfected with OAT3, probe furosemide (5 µM)
OAT3 [17] = target: T4, OAT3; experiment: uptake transporter inhibition assessment, transfected HEK293; conditions: inhibitor 100 μM
CYP1A2 = CYP1A2 (Homo sapiens, UniProt P05177); conditions: 20 min, 50 μM, pH 7.4
[18] = CYP Control (negative control without CYP enzymes) in hrCYP reaction phenotyping; conditions: S-mephenytoin 20 μM, metabolite 4′ - OH Mephenytoin
MATE1 [19] = target: T5, MATE1 (Homo sapiens, UniProt Q96FL8); experiment: in vitro; conditions: HEK293 cells transfected with MATE1, probe metformin (50 µM)
MATE1 [20] = target: T5, MATE1; experiment: uptake transporter inhibition assessment, transfected HEK293; conditions: inhibitor 100 μM
in vitro [21] = conditions: for Analyte Peak/IS Peak Ares (Mean), T60-blood / Analyte Peak/IS Peak Ares (Mean), T60-plasma: 60 min; for Analyte Peak/IS Peak Ares (Mean), T60-blood / Analyte Peak/IS Peak Ares (Mean), T60-plasma / Analyte Peak/IS Peak Ares (Mean), T0: 2 μM; for Analyte Peak/IS Peak Ares (Mean), T0: 0 min
Experimental: All working solutions were freshly prepared similarly as described for the test article working solution.
Assay for determining Blood to plasma ratio: Pooled male CD-1 mouse, Sprague-Dawley rat, beagle dog and cynomolgus monkey plasma, and mixed gender human blood with EDTAK2 as anticoagulant were stored on wet ice and used the same day. […] After mixing thoroughly, 0.6 mL of spiked blood was transferred to a 96-well plate in triplicate. Concurrently, control compounds were spiked into each species blood in the same fashion to generate the final concentration of 2.0 μM.
The rest of the spiked blood samples were immediately placed into a humidified incubator with 5% CO2 at 37° C., with constant swiveling at 500 rpm for 60 min on a platform shaker. […] The T60-plasma samples for analysis were obtained by taking 50 μL of plasma from each well, mixed with 50 μL of blank blood and 100 μL of water, followed by addition of 600 μL stop solution. […] All the T0, T60-blood and T60-plasma samples were shaken vigorously at 800 rpm for 30 min followed by the centrifugation at 3220×g at 20° C. for 20 min. 100 μL aliquot of supernatant was diluted with 100 μL of water and mixed well for LC-MS/MS analysis.
Measurement of Hematocrit: The hematocrit (the volume percentage of erythrocytes in blood) was determined in triplicate for each species by centrifuging the blood samples with a HAEMATOKRIT 200 at 9440×g for 5 min.
Data analysis: The ratio of compound concentrations in whole blood over plasma (KB/P) and % Recovery in blood were calculated by the following equations: KB/P=[…]([T60-blood]/[T60-plasma]), where [T60-blood] is the peak area ratios of analyte/internal standard in whole blood sample at 60 min; [T60-plasma] is the peak area ratios of analyte/internal standard in plasma sample at 60 min; [T0-blood] is the peak area ratios of analyte/internal standard in whole blood sample at time zero.

CYP2C9 = CYP2C9 (Homo sapiens, UniProt P11712); conditions: 20 min, 6 μM, pH 7.4
Sequence of CYP2C9 (P11712 whole entry): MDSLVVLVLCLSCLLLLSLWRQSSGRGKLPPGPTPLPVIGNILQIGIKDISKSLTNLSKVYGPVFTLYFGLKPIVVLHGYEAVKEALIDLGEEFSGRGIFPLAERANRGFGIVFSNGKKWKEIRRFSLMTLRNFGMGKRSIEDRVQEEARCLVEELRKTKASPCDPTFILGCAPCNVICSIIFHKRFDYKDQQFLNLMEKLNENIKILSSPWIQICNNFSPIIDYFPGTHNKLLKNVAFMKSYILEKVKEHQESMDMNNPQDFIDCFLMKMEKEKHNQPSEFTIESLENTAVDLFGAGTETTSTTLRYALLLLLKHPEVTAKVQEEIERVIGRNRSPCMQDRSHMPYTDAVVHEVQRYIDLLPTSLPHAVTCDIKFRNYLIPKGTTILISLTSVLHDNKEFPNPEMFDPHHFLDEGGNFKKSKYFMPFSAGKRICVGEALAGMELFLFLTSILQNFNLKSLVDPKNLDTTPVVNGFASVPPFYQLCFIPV

T2 sequence (P08183 whole entry): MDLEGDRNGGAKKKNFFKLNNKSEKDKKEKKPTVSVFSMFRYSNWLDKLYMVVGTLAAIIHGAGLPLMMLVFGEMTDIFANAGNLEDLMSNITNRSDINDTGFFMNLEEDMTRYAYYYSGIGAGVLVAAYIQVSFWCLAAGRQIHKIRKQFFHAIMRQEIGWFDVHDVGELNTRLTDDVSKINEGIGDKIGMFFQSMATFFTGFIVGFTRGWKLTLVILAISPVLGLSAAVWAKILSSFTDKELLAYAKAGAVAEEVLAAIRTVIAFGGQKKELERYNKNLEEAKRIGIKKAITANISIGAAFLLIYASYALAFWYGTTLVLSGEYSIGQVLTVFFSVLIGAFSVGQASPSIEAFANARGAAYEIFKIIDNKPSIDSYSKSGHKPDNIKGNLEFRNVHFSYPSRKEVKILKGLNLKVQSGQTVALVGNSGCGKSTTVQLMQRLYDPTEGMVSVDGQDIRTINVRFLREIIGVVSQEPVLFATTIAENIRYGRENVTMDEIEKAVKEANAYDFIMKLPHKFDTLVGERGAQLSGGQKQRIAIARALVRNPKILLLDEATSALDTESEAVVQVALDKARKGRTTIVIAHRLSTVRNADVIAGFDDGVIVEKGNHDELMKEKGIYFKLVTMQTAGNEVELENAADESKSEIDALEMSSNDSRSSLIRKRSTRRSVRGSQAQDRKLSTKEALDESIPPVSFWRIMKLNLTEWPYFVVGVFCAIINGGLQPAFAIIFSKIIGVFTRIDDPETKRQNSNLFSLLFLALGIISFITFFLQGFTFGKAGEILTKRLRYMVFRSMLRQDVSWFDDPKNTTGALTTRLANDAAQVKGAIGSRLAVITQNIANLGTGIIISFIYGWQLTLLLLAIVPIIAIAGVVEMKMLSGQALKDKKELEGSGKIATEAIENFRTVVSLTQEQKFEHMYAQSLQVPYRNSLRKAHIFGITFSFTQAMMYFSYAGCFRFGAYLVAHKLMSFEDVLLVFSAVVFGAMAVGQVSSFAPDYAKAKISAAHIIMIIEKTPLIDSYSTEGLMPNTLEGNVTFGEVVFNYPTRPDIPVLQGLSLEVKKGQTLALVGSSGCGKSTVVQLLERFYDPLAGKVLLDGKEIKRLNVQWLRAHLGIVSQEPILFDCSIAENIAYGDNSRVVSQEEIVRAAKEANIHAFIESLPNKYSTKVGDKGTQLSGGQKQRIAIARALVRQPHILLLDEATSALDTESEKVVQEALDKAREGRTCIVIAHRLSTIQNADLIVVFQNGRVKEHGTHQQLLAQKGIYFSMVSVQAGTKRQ
T1 sequence (Q86VL8 1-566 isoform Q86VL8-3): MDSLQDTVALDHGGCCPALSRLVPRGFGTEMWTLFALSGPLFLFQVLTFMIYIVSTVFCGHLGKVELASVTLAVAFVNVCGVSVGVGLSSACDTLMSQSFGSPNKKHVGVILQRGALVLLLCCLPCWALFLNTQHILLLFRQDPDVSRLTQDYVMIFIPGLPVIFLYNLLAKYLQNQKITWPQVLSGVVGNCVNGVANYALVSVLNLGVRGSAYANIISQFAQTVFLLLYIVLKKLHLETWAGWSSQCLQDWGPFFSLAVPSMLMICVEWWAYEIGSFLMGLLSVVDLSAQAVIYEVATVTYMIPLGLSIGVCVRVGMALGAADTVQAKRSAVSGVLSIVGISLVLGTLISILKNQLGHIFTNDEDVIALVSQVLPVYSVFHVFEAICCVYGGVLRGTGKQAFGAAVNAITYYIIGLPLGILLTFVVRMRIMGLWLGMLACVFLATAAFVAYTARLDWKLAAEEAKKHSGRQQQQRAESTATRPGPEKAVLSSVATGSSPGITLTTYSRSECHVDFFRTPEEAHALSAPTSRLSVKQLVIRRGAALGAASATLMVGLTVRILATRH
T5 sequence (Q96FL8 whole entry): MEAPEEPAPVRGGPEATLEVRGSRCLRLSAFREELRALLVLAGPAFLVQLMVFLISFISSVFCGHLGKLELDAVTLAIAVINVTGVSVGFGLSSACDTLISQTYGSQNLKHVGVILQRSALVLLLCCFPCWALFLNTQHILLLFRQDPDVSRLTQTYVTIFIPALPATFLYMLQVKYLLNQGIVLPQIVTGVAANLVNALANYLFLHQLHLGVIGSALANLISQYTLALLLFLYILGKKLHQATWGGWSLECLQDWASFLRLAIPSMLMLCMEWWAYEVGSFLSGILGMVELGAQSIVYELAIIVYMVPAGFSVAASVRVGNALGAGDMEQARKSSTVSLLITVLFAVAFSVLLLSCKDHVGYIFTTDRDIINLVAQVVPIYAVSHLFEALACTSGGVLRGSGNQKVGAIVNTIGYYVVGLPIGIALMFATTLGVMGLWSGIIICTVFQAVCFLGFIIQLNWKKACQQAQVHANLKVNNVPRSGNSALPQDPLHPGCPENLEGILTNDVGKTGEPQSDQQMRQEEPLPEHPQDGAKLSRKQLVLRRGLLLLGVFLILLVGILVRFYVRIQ
T3 sequence (P10635 whole entry): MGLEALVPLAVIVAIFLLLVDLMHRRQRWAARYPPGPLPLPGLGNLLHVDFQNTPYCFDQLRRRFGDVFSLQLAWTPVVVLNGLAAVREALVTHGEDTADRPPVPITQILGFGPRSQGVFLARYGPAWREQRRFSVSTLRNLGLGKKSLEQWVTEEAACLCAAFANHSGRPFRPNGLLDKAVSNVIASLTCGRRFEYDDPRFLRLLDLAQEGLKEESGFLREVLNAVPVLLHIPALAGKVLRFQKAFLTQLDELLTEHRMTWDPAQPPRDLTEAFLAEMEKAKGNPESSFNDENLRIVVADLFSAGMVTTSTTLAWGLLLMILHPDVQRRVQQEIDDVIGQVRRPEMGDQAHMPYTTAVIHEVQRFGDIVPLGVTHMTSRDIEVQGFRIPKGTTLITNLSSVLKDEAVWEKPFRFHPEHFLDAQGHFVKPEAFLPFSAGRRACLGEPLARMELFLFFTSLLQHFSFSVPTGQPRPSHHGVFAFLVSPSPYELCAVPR
Sequence of CYP1A2 (P05177 whole entry): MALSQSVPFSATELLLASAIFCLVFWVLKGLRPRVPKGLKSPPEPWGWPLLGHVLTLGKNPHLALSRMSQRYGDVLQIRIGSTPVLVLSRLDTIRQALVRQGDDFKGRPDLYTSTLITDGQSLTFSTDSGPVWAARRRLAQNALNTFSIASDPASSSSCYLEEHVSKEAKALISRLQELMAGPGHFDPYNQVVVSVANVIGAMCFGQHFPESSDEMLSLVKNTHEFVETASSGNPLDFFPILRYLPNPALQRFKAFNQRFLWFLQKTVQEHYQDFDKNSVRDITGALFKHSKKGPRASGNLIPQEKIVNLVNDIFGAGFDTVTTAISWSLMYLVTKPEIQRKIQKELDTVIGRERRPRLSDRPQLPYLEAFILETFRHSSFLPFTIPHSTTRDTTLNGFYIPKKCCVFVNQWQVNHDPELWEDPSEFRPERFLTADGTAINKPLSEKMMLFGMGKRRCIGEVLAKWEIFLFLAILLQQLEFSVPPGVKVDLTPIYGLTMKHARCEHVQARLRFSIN
T4 sequence (Q8TCC7 whole entry): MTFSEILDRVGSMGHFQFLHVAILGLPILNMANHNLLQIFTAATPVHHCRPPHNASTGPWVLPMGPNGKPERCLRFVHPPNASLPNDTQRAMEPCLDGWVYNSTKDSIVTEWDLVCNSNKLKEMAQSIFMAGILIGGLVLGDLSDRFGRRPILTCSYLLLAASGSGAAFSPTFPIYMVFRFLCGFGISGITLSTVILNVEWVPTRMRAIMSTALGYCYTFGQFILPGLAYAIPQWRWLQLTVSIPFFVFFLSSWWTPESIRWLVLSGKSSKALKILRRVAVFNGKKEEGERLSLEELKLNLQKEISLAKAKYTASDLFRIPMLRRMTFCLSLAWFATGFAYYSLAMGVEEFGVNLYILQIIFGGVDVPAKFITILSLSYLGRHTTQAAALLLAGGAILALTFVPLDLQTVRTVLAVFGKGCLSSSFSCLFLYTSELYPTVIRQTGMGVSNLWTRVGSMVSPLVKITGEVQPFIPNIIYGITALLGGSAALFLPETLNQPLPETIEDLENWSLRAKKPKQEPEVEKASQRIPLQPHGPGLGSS

For CCc1nc(N)nc(N)c1-c1ccc(Cl)cc1 [Pyrimethamine], which inhibition at 1 µM (MATE2K [1]) is on record?
The inhibition at 1 µM was 93.3%.

And the “Inhibition Potential Classification” value (MATE2K [2])?
The value was “Positive (Percent inhibition≥50%: Positive)”.

With C[C@H]1O[C@@H](O[C@H]2[C@@H](O)C[C@H](O[C@H]3[C@@H](O)C[C@H](O[C@H]4CC[C@@]5(C)[C@H](CC[C@@H]6[C@@H]5C[C@@H](O)[C@]5(C)[C@@H](C7=CC(=O)OC7)CC[C@]65O)C4)O[C@@H]3C)O[C@@H]2C)C[C@H](O)[C@@H]1O [Digoxin, digoxin] as the compound, how does the “Recovery (%)” value (P-GP [3]) read?
The value was 79.9%.

And the Papp A→B at 120 min (P-GP [4])?
Its Papp A→B at 120 min is 0.344 ×10⁻⁶ cm/s.

And the Papp B→A at 120 min (P-GP [4])?
Its Papp B→A at 120 min is 10.5 ×10⁻⁶ cm/s.

What about the recovery at 120 min (P-GP [4]) of the same compound?
Its recovery at 120 min is 73.4%.

And the Papp B→A at 120 min (P-GP [5])?
Its Papp B→A at 120 min is 10.4 ×10⁻⁶ cm/s.

And the recovery at 120 min (P-GP [5])?
Its recovery at 120 min is 77.6%.

And the recovery at 120 min, 10 µM (P-GP [6]; Caco-2, pH 7.4, % Recovery)?
The recovery at 120 min, 10 µM was 95.4%.

And the Papp B→A at 120 min, 10 μM (P-GP [6]; Caco-2, pH 7.4, Papp AVG)?
The Papp B→A at 120 min, 10 μM was 10.9 ×10⁻⁶ cm/s.

And the Papp A→B at 120 min, 10 μM (P-GP [6]; Caco-2, pH 7.4, Papp R1)?
The Papp A→B at 120 min, 10 μM was 0.344 ×10⁻⁶ cm/s.

And the Papp A→B at 120 min, 10 μM (P-GP [6]; Caco-2, pH 7.4, Papp R2)?
Its Papp A→B at 120 min, 10 μM is 0.645 ×10⁻⁶ cm/s.

What about the Papp B→A at 120 min, 10 μM (P-GP [6]; Caco-2, pH 7.4, Papp R2) of the same compound?
The Papp B→A at 120 min, 10 μM was 10.5 ×10⁻⁶ cm/s.

And the recovery at 120 min, 10 µM (P-GP [6]; Caco-2, pH 7.4, Recovery (%))?
The recovery at 120 min, 10 µM was 73.4%.

What about the Papp A→B (in vitro [7]) of the same compound?
The Papp A→B was 0.511 ×10⁻⁶ cm/s.

What about the Papp A→B at 120 min (P-gp [8]) of the same compound?
Its Papp A→B at 120 min is 0.403 ×10⁻⁶ cm/s.

And the Papp B→A at 120 min (P-gp [8])?
The Papp B→A at 120 min was 8.93 ×10⁻⁶ cm/s.

And the Papp B→A (P-gp (MDR1))?
Its Papp B→A is 11 ×10⁻⁶ cm/s.

What about the Papp A→B at 120 min (P-gp [9]) of the same compound?
Its Papp A→B at 120 min is 0.0792 ×10⁻⁶ cm/s.

And the “P-gp Substrate Classification” value (P-GP [10]; Digoxin)?
The value was “Positive”.

What about the “Recovery (%)” value (P-GP [10]; Digoxin + 1 μM Valspodar, A-to-B) of the same compound?
The value was 72.2%.

And the “Recovery (%)” value (P-GP [10]; Digoxin + 1 μM Valspodar, B-to-A)?
The value was 95.3%.

And the “Papp AVG” value (P-GP [10]; Digoxin, A-to-B)?
Its value is 0.494 10^−6 cm/s.

What about the “Papp AVG” value (P-GP [10]; Digoxin, B-to-A) of the same compound?
The value was 10.9 10^−6 cm/s.

What about the “Papp R1” value (P-GP [10]; Digoxin, B-to-A) of the same compound?
Its value is 11.4 10^−6 cm/s.

What about the “Recovery (%)” value (P-GP [10]; Digoxin, B-to-A) of the same compound?
The value was 79.9%.

And the “P-gp Substrate Classification” value (P-GP [11]; Digoxin)?
The value was “Positive”.

What about the “Recovery (%)” value (P-GP [11]; Digoxin + 1 μM Valspodar) of the same compound?
The value was 85.9%.

And the “Papp AVG” value (P-GP [11]; Digoxin, A-to-B)?
The value was 0.0321 10^−6 cm/s.

And the “Papp R1” value (P-GP [11]; Digoxin, A-to-B)?
Its value is 0.0436 10^−6 cm/s.

And the “Recovery (%)” value (P-GP [11]; Digoxin)?
The value was 74.9%.

For Fc1ccc([C@@H]2CCNC[C@H]2COc2ccc3c(c2)OCO3)cc1 [Paroxetine], which “% of Control Enzyme Activity” value (CYP2D6 [12]) is on record?
The value was 79.1%.

And the activity at 30 min, 0.123 µM (CYP2D6 [13])?
Its activity at 30 min, 0.123 µM is 95.8%.

Which Papp [14] does the source give for CC(C)NCC(O)COc1cccc2ccccc12 (stereo not drawn) [Propranolol] here?
Its Papp is 20.1 ×10⁻⁶ cm/s.

And the Papp at 120 min (in vitro [15])?
Its Papp at 120 min is 20.3 ×10⁻⁶ cm/s.

For CCCN(CCC)S(=O)(=O)c1ccc(C(=O)O)cc1 [Probenecid], which inhibition at 100 µM (OAT3 [16]) is on record?
The inhibition at 100 µM was 72%.

What about the “Inhibition Potential Classification” value (OAT3 [17]) of the same compound?
The value was “Positive (Percent inhibition≥50%: Positive)”.

With CCOc1ccc(NC(C)=O)cc1 [Phenacetin] as the compound, how does the “Formation Rate” value (CYP1A2) read?
Its value is 1819 pmol metabolite/min/mg Supersome protein.

And the “Measured Metabolite” value (CYP1A2)?
Its value is 3.71 µM.

Which “Formation Rate” value [18] does the source give for CC[C@@]1(c2ccccc2)NC(=O)N(C)C1=O [S-mephenytoin] here?
The value was 0 pmol metabolite/min/mg Supersome protein.

What about the “Measured Metabolite” value [18] of the same compound?
The value was 0 µM.

Which results are given for CN/C(=N/CCSCc1nc[nH]c1C)NC#N [Cimetidine]?
inhibition at 100 µM (MATE1 [19]): 99.2%; Inhibition Potential Classification (MATE1 [20]): Positive (Percent inhibition≥50%: Positive)

Which recovery at 60 min, 2 μM (in vitro [21]; both, human) does the source give for O=C(O)Cc1ccccc1Nc1c(Cl)cccc1Cl [Diclofenac] here?
The recovery at 60 min, 2 μM was 91.2 ± 4.43%.

And the “Analyte Peak/IS Peak Ares (Mean), T60-blood” value (in vitro [21]; both, human)?
Its value is 0.311.

And the “Analyte Peak/IS Peak Ares (Mean), T60-plasma” value (in vitro [21]; both, human)?
Its value is 0.473.

What about the recovery at 60 min, 2 μM (in vitro [21]; male, CD-1, mouse) of the same compound?
Its recovery at 60 min, 2 μM is 100 ± 6.79%.

And the “Analyte Peak/IS Peak Ares (Mean), T60-blood” value (in vitro [21]; male, CD-1, mouse)?
The value was 0.365.

And the “Analyte Peak/IS Peak Ares (Mean), T60-plasma” value (in vitro [21]; male, CD-1, mouse)?
The value was 0.501.

What about the recovery at 60 min, 2 μM (in vitro [21]; male, Sprague-Dawley, rat) of the same compound?
The recovery at 60 min, 2 μM was 100 ± 3.45%.

And the “Analyte Peak/IS Peak Ares (Mean), T0” value (in vitro [21]; male, Sprague-Dawley, rat)?
The value was 0.330.

What about the “Analyte Peak/IS Peak Ares (Mean), T60-blood” value (in vitro [21]; male, Sprague-Dawley, rat) of the same compound?
Its value is 0.331.

And the “Analyte Peak/IS Peak Ares (Mean), T60-plasma” value (in vitro [21]; male, Sprague-Dawley, rat)?
Its value is 0.480.

What about the recovery at 60 min, 2 μM (in vitro [21]; male, beagle, dog) of the same compound?
Its recovery at 60 min, 2 μM is 104 ± 1.36%.

And the “Analyte Peak/IS Peak Ares (Mean), T0” value (in vitro [21]; male, beagle, dog)?
The value was 0.301.

And the “Analyte Peak/IS Peak Ares (Mean), T60-blood” value (in vitro [21]; male, beagle, dog)?
Its value is 0.313.

And the “Analyte Peak/IS Peak Ares (Mean), T60-plasma” value (in vitro [21]; male, beagle, dog)?
Its value is 0.484.

What about the recovery at 60 min, 2 μM (in vitro [21]; male, cynomolgus monkey) of the same compound?
The recovery at 60 min, 2 μM was 101 ± 8.23%.

What about the “Analyte Peak/IS Peak Ares (Mean), T0” value (in vitro [21]; male, cynomolgus monkey) of the same compound?
Its value is 0.314.

What about the “Analyte Peak/IS Peak Ares (Mean), T60-blood” value (in vitro [21]; male, cynomolgus monkey) of the same compound?
The value was 0.318.

And the “Analyte Peak/IS Peak Ares (Mean), T60-plasma” value (in vitro [21]; male, cynomolgus monkey)?
Its value is 0.513.

What about the “Formation Rate” value (CYP2C9) of the same compound?
The value was 650 pmol metabolite/min/mg Supersome protein.

What about the “Measured Metabolite” value (CYP2C9) of the same compound?
The value was 0.676 µM.
